Data: publication PMC9795070, “Customized chitooligosaccharide production—controlling their length via engineering of rhizobial chitin synthases and the choice of expression system” (Frontiers in Bioengineering and Biotechnology, 2022)

Target: T1, NodC_GRH2 (Rhizobium sp. GRH2, UniProt A0A0N7ARR3)
T1 construct: gene nodC; wild-type nodC in shuttle vector pEKEx3, expressed in E. coli BL21 (DE3) and C. glutamicum DSM20300; not purified, membrane-embedded
T1 sequence (A0A0N7ARR3 1-443): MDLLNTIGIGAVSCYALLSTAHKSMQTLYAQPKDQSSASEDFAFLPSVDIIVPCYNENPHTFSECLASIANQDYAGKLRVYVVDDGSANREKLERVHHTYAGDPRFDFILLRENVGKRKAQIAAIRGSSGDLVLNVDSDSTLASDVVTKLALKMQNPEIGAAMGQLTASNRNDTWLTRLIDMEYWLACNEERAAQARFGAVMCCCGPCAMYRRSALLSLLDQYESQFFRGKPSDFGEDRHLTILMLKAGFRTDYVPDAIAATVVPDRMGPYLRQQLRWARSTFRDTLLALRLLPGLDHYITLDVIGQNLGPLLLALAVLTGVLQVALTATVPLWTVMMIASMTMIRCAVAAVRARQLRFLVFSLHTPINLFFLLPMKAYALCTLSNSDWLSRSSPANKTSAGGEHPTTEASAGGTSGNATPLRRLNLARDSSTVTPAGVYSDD
Experiment: whole-cell production, HILIC-ESI-MS of lysed culture
Format: cell-based
Conditions: 0.1 mM IPTG, donor UDP-GlcNAc from the host

`CC(=O)N[C@H]1[C@H](O[C@H]2[C@H](O)[C@@H](NC(C)=O)[C@H](O[C@H]3[C@H](O)[C@@H](NC(C)=O)C(O)O[C@@H]3CO)O[C@@H]2CO)O[C@H](CO)[C@@H](O[C@@H]2O[C@H](CO)[C@@H](O[C@@H]3O[C@H](CO)[C@@H](O)[C@H](O)[C@H]3NC(C)=O)[C@H](O)[C@H]2NC(C)=O)[C@@H]1O` (some centres unmarked) [A5, pentamer] was tested, and the “whole-cell production, HILIC-ESI-MS of lysed culture” value (E. coli BL21 (DE3), 30 °C) was “the main product for wildtype NodC_GRH2 throughout the whole cultivation is A5”.
For `CC(=O)N[C@H]1[C@H](O[C@H]2[C@H](O)[C@@H](NC(C)=O)[C@H](O[C@H]3[C@H](O)[C@@H](NC(C)=O)C(O)O[C@@H]3CO)O[C@@H]2CO)O[C@H](CO)[C@@H](O[C@@H]2O[C@H](CO)[C@@H](O[C@@H]3O[C@H](CO)[C@@H](O[C@@H]4O[C@H](CO)[C@@H](O)[C@H](O)[C@H]4NC(C)=O)[C@H](O)[C@H]3NC(C)=O)[C@H](O)[C@H]2NC(C)=O)[C@@H]1O` (some centres unmarked) [A6, hexamer], the “whole-cell production, HILIC-ESI-MS of lysed culture” value (C. glutamicum DSM20300, 30 °C) was “C. glutamicum expressing the same wildtype enzyme produces predominantly A6”.
